In patent US20160046579A1, “THERAPEUTIC COMPOUNDS AND COMPOSITIONS” (AGIOS PHARMACEUTICALS, INC., priority 2013, published 2016):

Key:
[1] = biological target: PKR R532W (Homo sapiens, UniProt P30613, R532W); assay: PKR Mutant Assay, dose response (AC50), PKR R532W; assay type: biochemical; settings: PKR R532W mutant enzyme
Description: (§1) • PKR or PKR mutant enzyme solution was diluted in assay buffer. • 2 μL of test compound was added into wells first, and then 180 μL reaction mix was added. • Reactions mixture with test compound was assembled except for ADP, and plates were stored for 60 minutes at room temperature. • 20 uL ADP was added to start reaction at room temperature and reaction progress was measured as changes in absorbance at 340 nm wavelength at room temperature.
(§2) Test Compound Preparation: • Test compound stock was made at 100× concentration in 100% DMSO (10 mM) • 1 to 3 dilutions were made for 11 points (i.e. 50 μl of first concentration added to 100 μl 100% DMSO to yield 3.33 mM, 50 μl of this added to 100 μl DMSO to yield 1.11 mM, and so forth) • 1 to 100 dilution into assay (2 μl in 200 μl) yielded starting concentration of 100 μM, decreasing 3 fold for 11 points.

[2] = biological target: PKR R510Q (Homo sapiens, UniProt P30613, R510Q); assay: PKR Mutant Assay, dose response (AC50), PKR R510Q; assay type: biochemical; settings: PKR R510Q mutant enzyme
PKR R510Q, sequence (P30613 whole entry R510Q): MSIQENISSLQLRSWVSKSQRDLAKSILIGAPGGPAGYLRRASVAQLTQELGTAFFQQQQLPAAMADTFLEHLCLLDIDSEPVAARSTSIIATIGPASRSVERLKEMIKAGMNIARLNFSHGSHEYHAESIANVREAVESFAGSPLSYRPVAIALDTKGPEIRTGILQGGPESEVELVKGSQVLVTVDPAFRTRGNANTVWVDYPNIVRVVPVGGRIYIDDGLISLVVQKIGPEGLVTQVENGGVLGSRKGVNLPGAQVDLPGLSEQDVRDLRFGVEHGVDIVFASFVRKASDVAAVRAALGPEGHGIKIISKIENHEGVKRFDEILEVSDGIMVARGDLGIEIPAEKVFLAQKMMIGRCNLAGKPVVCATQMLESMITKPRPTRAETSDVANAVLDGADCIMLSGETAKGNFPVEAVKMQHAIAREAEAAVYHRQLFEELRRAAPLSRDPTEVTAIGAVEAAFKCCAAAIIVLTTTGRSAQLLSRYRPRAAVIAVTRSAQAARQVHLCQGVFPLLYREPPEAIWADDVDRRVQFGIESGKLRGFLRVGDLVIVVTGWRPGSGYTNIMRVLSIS
Description: as §1, §2

[3] = biological target: T1, wt PKR (Homo sapiens, UniProt P30613); assay: PKR Mutant Assay, dose response (AC50), wild type PKR enzyme; assay type: biochemical; settings: wild type PKR enzyme
T1 sequence (P30613 whole entry): as the sequence (P30613 whole entry R510Q) above, with Q510R counted along it
Description: as §1, §2

[4] = biological target: T1, wt PKR; assay: wt PKR cell based assay

PKR R532W, sequence (P30613 whole entry R532W): as the sequence (P30613 whole entry R510Q) above, with Q510R, R532W counted along it

| AC50 [1] | AC50 [2] | AC50 [3] | AC50 [4] | Structure (SMILES) |
| --- | --- | --- | --- | --- |
| < 100 nM | 101 to 1000 nM | < 100 nM | 101 to 1000 nM | Cc1n[nH]c(C)c1CC1(O)CCN(C(=O)c2ccc(NS(=O)(=O)c3cccc4scnc34)cc2)CC1 [Compound 514] |
| < 100 nM | 101 to 1000 nM | < 100 nM | 101 to 1000 nM | CC(F)(F)CCC1(O)CCN(C(=O)c2ccc(NS(=O)(=O)c3cccc4scnc34)cc2OC(F)F)CC1 [Compound 473, N-(4-(4-(3,3-difluorobutyl)-4-hydroxypiperidine-1-carbonyl)-3-(difluoromethoxy)phenyl)benzo[d]thiazole-4-sulfonamide] |
| < 100 nM | < 100 nM | < 100 nM | < 100 nM | Cc1nscc1CC1(O)CCN(C(=O)c2ccc(NS(=O)(=O)c3cccc4nccnc34)cc2)CC1 [Compound 497, N-(4-(4-hydroxy-4-((3-methylisothiazol-4-yl)methyl)piperidine-1-carbonyl)phenyl)quinoxaline-5-sulfonamide] |
| < 100 nM | 101 to 1000 nM | < 100 nM | 101 to 1000 nM | Cc1cc(C2(O)CCN(C(=O)c3ccc(NS(=O)(=O)c4cccc5nccnc45)cc3)CC2)sn1 [Compound 518, N-(4-(4-hydroxy-4-(3-methylisothiazol-5-yl)piperidine-1-carbonyl)phenyl)quinoxaline-5-sulfonamide] |
| 101 to 1000 nM | 101 to 1000 nM | 101 to 1000 nM | 101 to 1000 nM | CC(F)(F)CCC1(O)CCN(C(=O)c2ccc(NS(=O)(=O)c3cc(F)cc4sc(N)nc34)cc2C#N)CC1 [Compound 491, 2-amino-N-(3-cyano-4-(4-(3,3-difluorobutyl)-4-hydroxypiperidine-1-carbonyl)phenyl)-6-fluorobenzo[d]thiazole-4-sulfonamide] |
| < 100 nM | 101 to 1000 nM | < 100 nM | < 100 nM | Cn1nccc1CC1(O)CCN(C(=O)c2ccc(NS(=O)(=O)c3cccc4nccnc34)cc2)CC1 [Compound 508, N-(4-(4-hydroxy-4-((1-methyl-1H-pyrazol-5-yl)methyl)piperidine-1-carbonyl)phenyl)quinoxaline-5-sulfonamide] |
| < 100 nM | 101 to 1000 nM | < 100 nM | < 100 nM | Cc1noc(C)c1CC1(O)CCN(C(=O)c2ccc(NS(=O)(=O)c3cccc4nccnc34)cc2)CC1 [Compound 521, N-(4-(4-((3,5-dimethylisoxazol-4-yl)methyl)-4-hydroxypiperidine-1-carbonyl)phenyl)quinoxaline-5-sulfonamide] |
| < 100 nM | 101 to 1000 nM | < 100 nM | 101 to 1000 nM | Cc1noc(C)c1CC1(O)CCN(C(=O)c2ccc(NS(=O)(=O)c3cccc4scnc34)cc2)CC1 [Compound 520, N-(4-(4-((3,5-dimethylisoxazol-4-yl)methyl)-4-hydroxypiperidine-1-carbonyl)phenyl)benzo[d]thiazole-4-sulfonamide] |
| < 100 nM | 101 to 1000 nM | < 100 nM | < 100 nM | O=C(c1ccc(NS(=O)(=O)c2cccc3scnc23)cc1)N1CCC(O)(c2sncc2Cl)CC1 [Compound 522, N-(4-(4-(4-chloroisothiazol-5-yl)-4-hydroxypiperidine-1-carbonyl)phenyl)benzo[d]thiazole-4-sulfonamide] |
| < 100 nM | 101 to 1000 nM | < 100 nM | 101 to 1000 nM | O=C(c1ccc(NS(=O)(=O)c2cccc3nccnc23)cc1)N1CCC(O)(Cc2cn[nH]c2)CC1 [Compound 499, N-(4-(4-((1H-pyrazol-4-yl)methyl)-4-hydroxypiperidine-1-carbonyl)phenyl)quinoxaline-5-sulfonamide] |
| < 100 nM | 101 to 1000 nM | < 100 nM | 101 to 1000 nM | Cc1cc(CC2(O)CCN(C(=O)c3ccc(NS(=O)(=O)c4cccc5nccnc45)cc3)CC2)sn1 [Compound 511, N-(4-(4-hydroxy-4-((3-methylisothiazol-5-yl)methyl)piperidine-1-carbonyl)phenyl)quinoxaline-5-sulfonamide] |
| < 100 nM | < 100 nM | < 100 nM | < 100 nM | Cc1nscc1CC1(O)CCN(C(=O)c2ccc(NS(=O)(=O)c3cccc4ncsc34)cc2)CC1 [Compound 519, N-(4-(4-hydroxy-4-((3-methylisothiazol-4-yl)methyl)piperidine-1-carbonyl)phenyl)benzo[d]thiazole-7-sulfonamide] |
| < 100 nM | 101 to 1000 nM | < 100 nM | < 100 nM | CC(F)(F)CCC1(O)CCN(C(=O)c2ccc(NS(=O)(=O)c3cccc4nc(N)cnc34)cc2)CC1 [Compound 486, 2-amino-N-(4-(4-(3,3-difluorobutyl)-4-hydroxypiperidine-1-carbonyl)phenyl)quinoxaline-5-sulfonamide] |
